The experiment deals with transformation of CPP1 to CPP2 in pooled human serum. Put plainly: In vitro serum calcification propensity (T50) screening assay. Type of experiment: biochemical. On the set-up: key to T50: T50 in minutes (time to 50% CPP phase transition). The settings on record: for activity/unit mass: mean c350 x mw (Na salt); for concentration upon which a T50 of 350 min is reached (c350), mean: mean of n experiments; for concentration upon which a T50 of 350 min is reached (c350), single experiment: one value per experiment (lab journal reference E05-E40); for Concentration at T50 = 350 min mean ± s.d. (n) (c350): pooled human serum, 10 mM calcium, 6 mM phosphate, 37 °C. As to the method:
The compounds were ranked for calcification inhibition activity using a nanoparticle-based test, developed for risk stratification, which measures the propensity for calcification in patient serum. […] The time, after which 50% of CPP phase transition occurred (T50), was assessed by time-resolved spectrophotometry at 550 nm (Supplementary Fig. 1a).
The screening assay was performed as described previously. In brief, pooled human serum (H4522, Sigma-Aldrich) stored at −20 °C was thawed at 37 °C, centrifuged (10,000 × g, and 4 °C, 30 min) (5427R, Eppendorf, Switzerland), and sterile filtered (0.22 μm filter, Millipore, Merck KGaA) to remove potential cryoprecipitates (cleared human serum). The calcium solution was 40 mM CaCl2 (102382, Merck KGaA) in HBS, pH 7.4 (RT) (100 mM HEPES (H3375, Sigma-Aldrich) and 140 mM NaCl (1734712, Fisher Scientific, Hampton, NH, USA)). […] All salt solutions and buffers were double sterile filtered (0.22 µm) and pre-warmed to 37 °C prior to use. […] The plate was sealed with an adhesive film and the absorption at 550 nm was measured every 3 min with 1 min in-between shaking for a total of 300 cycles at 37 °C using the infinite M200 microplate reader (Tecan, Männedorf, Switzerland). An A550 vs. time graph was generated and T50 (min) (time at half-maximum transition from CPP1 to CPP2) values were derived by sigmoidal curve fit using Prism 8 (nonlinear regression in the log(agonist) vs. response–variable slope (four parameter mode) using the robust fit fitting method, GraphPad Software, San Diego, CA, USA). Activities between compounds were compared by generating a T50 (min) vs. concentration (µM) graph, calculating nonlinear regression and deriving the concentration required to delay T50 to 350 min (c350) using a standard equation for the dose–response curve, Eq. (1), whereby x = [compound], y = time (min), bottom = baseline response, top = maximum response, T50 = [drug] that leads to half-maximum response, and the hill slope is a factor that describes the steepness of the curve.1 y= bottom+top - bottom/1+T50/x^hillslope.

Setting [1] is: concentration 1 μM, one value per experiment.
Setting [2] is: concentration 3 μM, one value per experiment.
[3] abbreviates: concentration 5 μM, one value per experiment.
Setting [4] is: concentration 10 μM, one value per experiment.
The mark [5] stands for this setting: concentration 15 μM, one value per experiment.
[6] abbreviates: concentration 30 μM, one value per experiment.
[7] abbreviates: concentration 50 μM, one value per experiment.
Where [8] appears, read: concentration 100 μM, one value per experiment.

This is an account of results in PMC7002685, “Inhibition of vascular calcification by inositol phosphates derivatized with ethylene glycol oligomers” (Nature Communications, 2020).

Where “and” joins values, the source holds several entries; their conditions need not be identical. Equal entries are not always repeated. Bounds are passed on as bounds.

As for `COCCOCCOCCOCCOCCOCCOCCO[C@H]1[C@H](OP(=O)(O)O)[C@H](OCCOCCOCCOCCOCCOCCOCCOC)[C@H](OP(=O)(O)O)[C@@H](OCCOCCOCCOCCOCCOCCOCCOC)[C@@H]1OP(=O)(O)O` [(OEG7)3-IP3, 2,4,6-Tri-O-(methoxy-heptaethyleneglycol)-myo-inositol-1,3,5-tris(phosphate)], the activity/unit mass was found to be 14.33 mg/L; the “concentration upon which a T50 of 350 min is reached (c350), mean” value (“concentration upon which a T50 … mean” for short) came out at 9.4 µM; the “concentration upon which a T50 of 350 min is reached (c350), single experiment” value was 8.7 µM and 9.8 µM; the “Concentration at T50 = 350 min mean ± s.d. (n) (c350)” value (shortened to “Concentration … (n) (c350)”) was 9.4 ± 0.6 (3) µM and 14.3 ± 1.0 (3) mg/L. The T50 under setting [1] is 258.7 and 237.667 and 205.767. Moreover, under setting [2], the T50 is 289.967 and 270.1 and 251.367. The T50 under setting [3] is 303.667 and 291.2 and 260.633. Besides, under setting [4], the T50 is 364.467 and 352.533 and 355.7.
As for `CC(O)(P(=O)(O)O)P(=O)(O)O` [Etidronate, etidronate], the activity/unit mass was determined as 2.61 mg/L; the “concentration upon which a T50 … mean” value is 10.5 µM; the “concentration upon which a T50 of 350 min is reached (c350), single experiment” value was 9.9 µM and 11.5 µM and 11.3 µM and 9.1 µM; the “Concentration … (n) (c350)” value was 10.5 ± 1.1 (4) µM and 2.6 ± 0.3 (4) mg/L. Also, the T50 under setting [1] is 222.567 and 215.333 and 215.167. Also, the T50 under setting [2] was 248.167 and 245.7 and 237.9. Moreover, the T50 under setting [3] is 290 and 263.6 and 286.233. In addition, the T50 under setting [4] is 321.233 and 361.6. The T50 under setting [5] was 433.033 and 458.567. For the same compound, under setting [6], the T50 is recorded as 729.533.
Consider `O=P(O)(O)O[C@@H]1[C@@H](O)[C@@H](OP(=O)(O)O)[C@@H](O)[C@H](O)[C@H]1O` [IP2, myo-Inositol-2,4-diphosphate], for which the “concentration upon which a T50 … mean” value was found to be 35.0 µM; the “concentration upon which a T50 of 350 min is reached (c350), single experiment” value was 27.3 µM and 35.1 µM and 42.7 µM; the “Concentration … (n) (c350)” value is 35.0 ± 7.7 (3) µM and 15.0 ± 3.3 (3) mg/L. In addition, the T50 under setting [1] was 228.333 and 230.233 and 205.967. Also, under setting [2], the T50 is 236.4 and 226.467 and 221.933. Besides, the T50 under setting [4] was 274.433 and 257.367 and 241.267. The T50 under setting [6] was 358.8 and 323.1 and 304.6. The T50 under setting [7] was 407.867 and 425.367 and 375.7.
On to `O=P(O)(O)O[C@@H]1[C@H](O)[C@H](O)[C@@H](OP(=O)(O)O)[C@H](OP(=O)(O)O)[C@H]1O` [IP3, myo-Inositol-1,4,5-triphosphate], for which the “concentration upon which a T50 … mean” value was 18.6 µM; the “concentration upon which a T50 of 350 min is reached (c350), single experiment” value is 15.5 µM and 18.6 µM and 21.6 µM; the “Concentration … (n) (c350)” value was 18.6 ± 3.1 (3) µM and 10.2 ± 1.7 (3) mg/L. The T50 under setting [1] was 226 and 227.733 and 222.3. For the same compound, the T50 under setting [2] was 236 and 220.433 and 234.133. The T50 under setting [4] was 306.433 and 280.567 and 269.467. For the same compound, under setting [6], the T50 is 515.9 and 500.567 and 450.3. The T50 under setting [7] was 814.5 and 889.4 and 828.767.
On to `O=P(O)(O)O[C@@H]1[C@@H](O)[C@H](OP(=O)(O)O)[C@@H](OP(=O)(O)O)[C@H](O)[C@@H]1OP(=O)(O)O` [IP4, myo-Inositol-2,3,5,6-tetrakisphosphate], for which the “concentration upon which a T50 … mean” value came out at 19.5 µM; the “concentration upon which a T50 of 350 min is reached (c350), single experiment” value was 20.1 µM and 19.8 µM and 18.8 µM; the “Concentration … (n) (c350)” value was 19.5 ± 0.7 (3) µM and 13.2 ± 0.5 (3) mg/L. For the same compound, under setting [1], the T50 was 211 and 218.833 and 216.333. Under setting [2], the T50 is 225 and 236 and 231.367. Under setting [4], the T50 was 262.033 and 281.067 and 280.633. Moreover, the T50 under setting [6] was 466.533 and 430.4 and 481.633. For the same compound, under setting [7], the T50 is 774.233 and 614.5 and 810.35.
Consider `O=P(O)(O)O[C@@H]1[C@H](OP(=O)(O)O)[C@H](OP(=O)(O)O)[C@@H](O)[C@H](OP(=O)(O)O)[C@H]1OP(=O)(O)O` [IP5, myo-Inositol-1,2,3,5,6-pentakisphosphate], for which the “concentration upon which a T50 … mean” value was determined as 13.2 µM; the “concentration upon which a T50 of 350 min is reached (c350), single experiment” value is 14.6 µM and 12.1 µM and 12.9 µM; the “Concentration … (n) (c350)” value is 13.2 ± 1.3 (3) µM and 10.5 ± 1.0 (3) mg/L. Besides, the T50 under setting [1] was 220.367 and 229.167 and 217.95. Moreover, under setting [2], the T50 is 240.433 and 226.567. For the same compound, the T50 under setting [4] is 286.067 and 304.933 and 322.1. The T50 under setting [5] is 373.933. In addition, the T50 under setting [6] was 702.867 and 723.533 and 709.1.
For the compound `OP(O)(=S)O[C@H]1[C@H](OP(O)(O)=S)[C@@H](OP(O)(O)=S)[C@H](OP(O)(O)=S)[C@@H](OP(O)(O)=S)[C@H]1OP(O)(O)=S` [IT6, myo-Inositol hexathiophosphate], the activity/unit mass amounted to 12.79 mg/L; the “concentration upon which a T50 … mean” value worked out at 14.4 µM; the “concentration upon which a T50 of 350 min is reached (c350), single experiment” value was 14.7 µM and 14.2 µM and 14.3 µM; the “Concentration … (n) (c350)” value is reported as 14.4 ± 0.3 (3) µM. In addition, under setting [1], the T50 is 209.1 and 228.433 and 226.433. Moreover, the T50 under setting [2] was 226.567 and 251.033 and 247.133. Under setting [4], the T50 is 291.533 and 299.233 and 300.133. Further, the T50 under setting [6] is 577.433 and 598.2 and 571.6.
In the case of `O=C([O-])CC(O)(CC(=O)[O-])C(=O)[O-].O=C([O-])CC(O)(CC(=O)[O-])C(=O)[O-].[Mg+2].[Mg+2].[Mg+2]` [Mg citrat], the activity/unit mass was determined as 21.44 mg/L and the “concentration upon which a T50 … mean” value is more than 100 µM.
Take `O=P(O)(O)OP(=O)(O)O` [PPi, sodium pyrophosphate]: the “concentration upon which a T50 … mean” value was 27.4 µM; the “concentration upon which a T50 of 350 min is reached (c350), single experiment” value is 26.6 µM and 25 µM and 30.5 µM; the “Concentration … (n) (c350)” value was 27.4 ± 2.8 (3) µM and 7.3 ± 0.8 (3) mg/L. Moreover, under setting [1], the T50 came out at 217.433. Moreover, the T50 under setting [2] was 221.633 and 215.733 and 209.467. In addition, the T50 under setting [4] was 255.8 and 265.133 and 242.367. Moreover, the T50 under setting [5] was 287.067 and 306.267 and 274.667. The T50 under setting [6] is 364.3 and 363.867 and 345.167. In addition, the T50 under setting [7] was 483 and 451.167.
In the case of `O[C@H]1[C@H](O)[C@@H](O)[C@H](O)[C@@H](O)[C@H]1O` [myo-Inositol, myo-inositol], the activity/unit mass came out at 18.02 mg/L; the “concentration upon which a T50 … mean” value was more than 100 µM; the “Concentration … (n) (c350)” value was >100 (4) µM and >18.0 (4) mg/L. Moreover, the T50 (1 µM, individual experiments, Fig. 2a) was 207.8 min and 255.6 min and 248.233 min and 290.55 min. Besides, the T50 (3 µM, individual experiments, Fig. 2a) was 211.367 min and 251.867 min and 315.75 min. Under “10 µM, individual experiments, Fig. 2a”, the T50 is 222.4 min and 274.533 min and 249.233 min and 297.6 min. The T50 (30 µM, individual experiments, Fig. 2a) is 215.55 min and 286.233 min and 247.167 min and 309.65 min. Further, for the setting “50 µM, individual experiments, Fig. 2a”, the T50 is 213.1 min and 307.8 min. The T50 (100 µM, individual experiments, Fig. 2a) is 291.467 min and 250.833 min. Further, the T50 under setting [1] is 207.8 and 255.6 and 248.233 and 290.55. Moreover, the T50 under setting [2] is 211.367 and 251.867 and 315.75. The T50 under setting [4] is 222.4 and 274.533 and 249.233 and 297.6. Besides, the T50 under setting [6] was 215.55 and 286.233 and 247.167 and 309.65. In addition, under setting [7], the T50 was 213.1 and 307.8. Moreover, under setting [8], the T50 was 291.467 and 250.833.
As for magnesium citrate, the “Concentration … (n) (c350)” value is >100 (3) µM and >21.4 (3) mg/L. The T50 under setting [1] is 196.233 and 242.1 and 288.4. The T50 under setting [2] was 190.533 and 253.267 and 289.2. The T50 under setting [4] is 197.533 and 253.867 and 304.8. For the same compound, the T50 under setting [6] is 198.933 and 273.433 and 307.3. In addition, the T50 under setting [8] is 228.767 and 304.4 and 351.8.
